We go through three compounds from patent publication US7662767B2, “Polynucleotide intercalator interceptors and inhibitors” (Materials Evolution and Development USA, Inc., priority 2000, dated 2010).

The structures appear in SMILES notation. Several values for one entry are separate records, joined by “and”; a condition that tells them apart may be missing. Identical values can stand only once.

Experiment [1] in a line: Fluorescence of 2 μM acridine orange solution with NaCl, caffeine and/or dsDNA. The protocol: The addition of salt could possibly affect the Kassoc values of AO and the other reactants by modifying the charge on the reactants and/or decreasing the influence of water molecules. To minimize AO self-association, i.e. dimerization, a relatively low concentration of AO [2 μM] may be used. The interaction between reactants was analyzed by spectrofluorometric methods at λex 485 nm and monitored at λem 530 nm (green).
Solutions of 2 μM AO alone and in various combinations with 150 mM NaCl, 5 mM CAF, 2 mM DNA were studied. Table 3-2 summarizes the results and the statistical analysis for differences between means.
In Table 3-2, fluorescence (λex=485 nm and λem=530 nm) was measured for AO [2 μM] in the absence of, and in the presence of, NaCl [150 mM], caffeine [5 mM], and DNA [2 mM] alone or in combination. Significant differences were found by one-way ANOVA (p≦0.05). […] It is noted that n=3 unless denoted by an * which indicates n=4.
Spectrofluorometric analyses at λex 485 nm and λem 530 nm were performed on solutions of 2:M AO in combination with 5 mM CAF and 2 mM dsDNA, with and without 150 mM NaCl. […] Note that CAF had no significant effect on the fluorescence of the AO solution when in the presence of NaCl (SNK letter designation “B”).

A short description of experiment [2]: Optical titration (absorbance) of acridine orange with xanthines/purines, Kassoc from delta absorbance. The class given is binding. Particulars: for enhancement of the ability of theophylline to complex AO: Kassoc relative to theophylline; for Kassoc ± S.E.: binding affinity between acridine orange (10 μM) and compound, 5 mM HEPES pH 7.0, 25±1° C., 0 = no measurable association detected; for K ± S.D.: AO-CAF, Absorbance, AO [10 μM], CAF [1-5000 μM], this study. The protocol:
A red spectral shift in the optical adsorption maximum of AO upon the addition of a particular xanthine, indicates the possibility of a complex being formed between the two compounds. Spectral shifts can be measured by optical titrations.
Optical titrations (serial additions of various xanthines to a solution of AO) were performed on a Beckman DU-600 Scanning Spectrophotometer (Beckman Instrument Co., New York, N.Y.) using a 3 mL (1-cm light path) quartz cuvette containing 2.0 mL of a […]. The DU600 Spectrophotometer was blanked with 2 mL of a pH 7.0 buffered 5 mM HEPES solution over the full range of wavelengths to be scanned prior to sample analysis. This reduced the need to subtract the background absorbance from the HEPES buffer. Optical absorbance scans were performed over a wavelength range preferably from 400 nm to 550 nm. […] The 10 μM AO solution was scanned before the start of each titration series to quantitatively monitor any changes in the absorbance spectrum. Optical absorbance experiments were performed using aliquots varying in volume from 1:L to 20:L taken from prepared xanthine stock solutions (5 mM to 50 mM) and titrated into the cuvette containing 2.0 mL of the 10 μM AO solution. The solution in the cuvette was then thoroughly mixed by 10 seconds of shaking before scanning. All titrations were performed at room temperature (25±1° C.). The absorbance spectra were measured in 1 nm intervals and stored in digital form. Digitized scan data was converted to a Lotus Spreadsheet file (*.wk1) using a conversion program supplied by the manufacturer (Beckman Instruments Inc.) then imported into a Microsoft Excel 97™ Workbook file (*.xls) and saved in this format for further analysis. Spectral data for each titration was combined and expressed in graphic form (Excel™) (X-axis=wavelength in nm; Y-axis=optical absorbance) for each xanthine titrated with AO. […] Adjusted absorption values were plotted and compared to spectra from non-complexed AO. This allowed for the visualization of an expected spectral shift that occurs when AO forms a complex with a xanthine.
The association constant, Kassoc, may be used to analyze the binding ability of modified xanthines to DNA intercalators. The association constant may be calculated based upon a differential shift in the absorbance spectrum. When the presence of the xanthine caused a spectral shift, a difference absorbance plot or delta plot was obtained. Delta plots were constructed by subtracting the adjusted absorption spectrum of AO in the presence of the xanthine from the initial spectrum of AO alone at each wavelength and for each aliquot of the titration. This procedure allowed for the creation of difference absorption values or delta absorption values. Delta absorption values obtained in this manner (Y-axis=delta absorption) were plotted against wavelength in nm (X-axis). The appearance of a single isobestic point was indicative of only two species present in solution, AO, and an AO complex. Graphic representation allowed for the selection of a wavelength with the maximum sensitivity for determining the association constant. This wavelength was characterized by the greatest positive response in delta absorbance values observed upon addition of each aliquot of xanthine to the AO solution. The AO-xanthine association or binding constant was determined by the following equilibrium expression: I+X≡IX EQUATION 1: […]
Where I represents the intercalator (AO), X represents the interceptor molecule (xanthine), and IX represents the AO-xanthine complex, respectively.

Experiment [3] concerns chicken erythrocyte nuclear chromatin. The experiment is described as follows: Blocking of acridine orange intercalation into chicken erythrocyte nuclear chromatin, fluorescence microscopy. On the set-up: key: 0: no blocking effect; 1: slight blocking; 2: moderate blocking; 3: almost total blocking (very slight green fluorescence detectable); 4: complete blockage (no green fluorescence detectable). The note with it: 10 μM AO. The protocol:
Microscope slides coated with chicken erythrocyte were stained with 10 μM AO at three separate areas on the microscope slide as described above. Slides were exposed to […] different xanthies at four different molar ratios for three different periods of time. The xanthines, theophylline, caffeine, 1,3,7,9-tetramethyl uric acid, and aminophylline, were prepared with 10 μM AO at molar ratios of 50:1, 500:1, 2500:1, 5000:1 xanthine to AO in distilled water. Microscope slides coated with chicken erythrocytes were exposed to a mixture of xanthine/AO at each molar ratio for periods of 10 min, 1 min, and 10 seconds under static (non-agitated) conditions. […] Following exposure to the xanthine/AO or to the DNA/AO solutions, the slides were rinsed in distilled water, allowed to dry at room temperature, examined by fluorescence microscopy, and the color of the nuclei recorded. Results were recorded as follows: 0=no blocking effect; 1=slight blocking; 2=moderate blocking; 3=almost total blocking (very slight green fluorescence detectable); 4=complete blockage (no green fluorescence detectable).
In the implementation shown in Table 4-2, the relative intensity of the green fluorescent color ([…]) utilizing a red blocking filter (≧600 nm) was used as the indicator of the intensity of staining. The molar ratio is expressed as the ratio of xanthine concentration to 10 μM AO. Results were recorded as follows: 0=no blocking effect; 1=slight blocking; 2=moderate blocking; 3=almost total blocking (very slight green fluorescence detectable); 4=complete blockage (no green fluorescence detectable). *Kassoc values for the xanthines are taken from Table 2-1 and the Kassoc values for DNA were taken from Table 3-2.

Setting [4] is: 2 μM AO, caffeine 5 mM, dsDNA 2 mM where present, λex 485 nm, λem 530 nm.
[5] abbreviates: Table 4-2, in parentheses under compound, taken from Table 2-1.
Where [6] appears, read: Table 4-3, taken from Table 2-1.
The mark [7] stands for this setting: Xanthine/AO molar ratio 5000:1, exposure 10 min.
Setting [8] is: molar ratio 50:1, exposure 10 sec.
[9] abbreviates: molar ratio 50:1, exposure 1 min.
Where [10] appears, read: molar ratio 50:1, exposure 10 min.
[11] abbreviates: molar ratio 500:1, exposure 10 sec.
Where [12] appears, read: molar ratio 500:1, exposure 1 min.
Where [13] appears, read: molar ratio 500:1, exposure 10 min.
[14] abbreviates: molar ratio 2500:1, exposure 10 sec.
The mark [15] stands for this setting: molar ratio 2500:1, exposure 1 min.
[16] abbreviates: molar ratio 2500:1, exposure 10 min.
Where [17] appears, read: molar ratio 5000:1, exposure 10 sec.
The mark [18] stands for this setting: molar ratio 5000:1, exposure 1 min.

`CN(C)c1ccc2cc3ccc(N(C)C)cc3nc2c1.Cl` [AO, 3,6-bis[dimethylamino]acridine hydrochloride]: in experiment [1] (setting [4]), the “Fluorescence With NaCl [150 mM] Mean ± S.E.” value is 635.5 ± 17.7 (B) and the “Fluorescence Without NaCl Mean ± S.E.” value was 514.0 ± 6.5 (A) ^.
Turning to `Cn1c(=O)c2[nH]cnc2n(C)c1=O.NCCN` [1,3-dimethyl xanthine ethylenediamine], the “enhancement of the ability of theophylline to complex AO” value in experiment [2] was 280%. The values for the Kassoc entry in experiment [2] (setting [5]) and in experiment [2] (setting [6]) were “(596) M^−1” and 596 M⁻¹, respectively. Moreover, the “Kassoc ± S.E.” value was 596.2 ± 6.5 M⁻¹ in experiment [2]; 596 M⁻¹ in experiment [2] (listed as AM); 596.2 M⁻¹ and 596 M⁻¹ in experiment [2] (listed as aminophylline). Further, the “blocking of AO intercalation” value in experiment [3] (setting [7]) is on record as 3; in experiment [3] (setting [8]) it was 0; in experiment [3] (setting [9]), 0; in experiment [3] (setting [10]), 0; in experiment [3] (setting [11]) it was 2; in experiment [3] (setting [12]), 2. Moreover, the “blocking of AO intercalation” value is listed as 0 in experiment [3] (setting [13]); 3 in experiment [3] (setting [14]); 2 in experiment [3] (setting [15]); 1 in experiment [3] (setting [16]); 3 in experiment [3] (setting [17]); 3 in experiment [3] (setting [18]).
On to `Cn1c(=O)c2c(ncn2C)n(C)c1=O` [1,3,7-trimethyl xanthine (caffeine), 1,3,7-trimethyl xanthine], for which the “K ± S.D.” value is 255 ± 5 M⁻¹ and 256 ± 5 M⁻¹ in experiment [2]; roughly 250 M⁻¹ in experiment [2] (listed as CAF-AO). For the same compound, the “enhancement of the ability of theophylline to complex AO” value in experiment [2] turned out to be 63%. The Kassoc in experiment [2] (Table 2-2, Kassoc value with acridine orange (this report)) is 256 M⁻¹; in experiment [2] (setting [5]), “(256) M^−1”; in experiment [2] (setting [6]) it was 256 M⁻¹. The “Kassoc ± S.E.” value was 255.7 ± 4.8^c M^−1 in experiment [2], 256 M⁻¹ in experiment [2] (listed as CAF), 256 M⁻¹ in experiment [2] (listed as CAF-AO) and roughly 256 M⁻¹ in experiment [2] (listed as CAP). In experiment [1] (2 mM DNA or 5 mM CAF, without NaCl), the “increase of fluorescence of 2 μM AO at 530 nm by addition” value is 29%. The “increase in fluorescence intensity of AO by addition” value in experiment [1] (DNA or CAF in the presence of 150 mM NaCl) came to 36%. Also, the “blocking of AO intercalation” value was 1 in experiment [3] (setting [7]); 0 in experiment [3] (setting [8]); 0 in experiment [3] (setting [9]); 0 in experiment [3] (setting [10]); 2 in experiment [3] (setting [11]); 0 in experiment [3] (setting [12]). Further, the “blocking of AO intercalation” value in experiment [3] (setting [13]) was found to be 0; in experiment [3] (setting [14]), 2; in experiment [3] (setting [15]), 1; in experiment [3] (setting [16]), 0; in experiment [3] (setting [17]) it was 3; in experiment [3] (setting [18]), 2.
